Where two headings read alike, the source gives them in different places.
Columns and labels:
androgen receptor = target: T1, androgen receptor (Homo sapiens, UniProt P10275, T878A); assay: PSA(6.1 kb)-luciferase reporter assay in LNCaP cells induced with R1881; type: cell-based
T1 construct: LNCaP cells express endogenous AR; endogenous in cells; host or cells: LNCaP
T1 sequence (P10275 1-920 T878A): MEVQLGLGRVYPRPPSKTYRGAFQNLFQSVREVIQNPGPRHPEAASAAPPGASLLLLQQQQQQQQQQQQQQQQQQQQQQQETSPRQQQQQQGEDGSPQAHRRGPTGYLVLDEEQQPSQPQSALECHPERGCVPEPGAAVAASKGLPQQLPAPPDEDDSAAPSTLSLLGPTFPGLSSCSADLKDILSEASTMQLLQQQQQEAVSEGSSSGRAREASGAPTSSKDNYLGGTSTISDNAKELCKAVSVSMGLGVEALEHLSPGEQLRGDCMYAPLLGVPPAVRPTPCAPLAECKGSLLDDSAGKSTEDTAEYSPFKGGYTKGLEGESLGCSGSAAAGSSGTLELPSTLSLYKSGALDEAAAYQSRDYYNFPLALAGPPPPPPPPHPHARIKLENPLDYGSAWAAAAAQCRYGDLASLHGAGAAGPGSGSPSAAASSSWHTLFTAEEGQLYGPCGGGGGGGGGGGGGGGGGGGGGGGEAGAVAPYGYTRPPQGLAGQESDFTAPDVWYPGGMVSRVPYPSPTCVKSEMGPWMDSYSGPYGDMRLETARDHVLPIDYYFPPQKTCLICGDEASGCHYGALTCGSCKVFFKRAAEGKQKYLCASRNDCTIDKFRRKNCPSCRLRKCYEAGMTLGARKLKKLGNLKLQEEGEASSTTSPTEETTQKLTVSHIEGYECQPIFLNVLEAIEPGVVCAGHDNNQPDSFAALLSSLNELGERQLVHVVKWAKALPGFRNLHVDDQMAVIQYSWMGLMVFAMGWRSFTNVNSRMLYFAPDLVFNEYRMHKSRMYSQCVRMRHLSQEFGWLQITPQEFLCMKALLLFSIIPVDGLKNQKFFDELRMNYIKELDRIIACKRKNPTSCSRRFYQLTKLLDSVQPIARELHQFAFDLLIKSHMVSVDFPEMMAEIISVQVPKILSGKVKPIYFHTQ
From the text: LNCaP cells were employed for experiments because they are well-differentiated human prostate cancer cells in which ligand-dependent and ligand-independent activation of AR by FSK has been characterized (Nazareth et al 1996 J. Biol. Chem. 271, 19900-19907; and Sadar 1999 J Biol. Chem. 274, 7777-7783). LNCaP cells express endogenous AR and secrete prostate-specific antigen (PSA) (Horoszewicz et al 1983 Cancer Res. 43, 1809-1818). LNCaP cells can be grown either as monolayers in cell culture or as tumors in the well-characterized xenograft model that progresses to castration-resistant prostate cancer (CRPC) in castrated hosts (Sato et al 1996 J. Steroid Biochem. Mol. Biol. 58, 139-146; Gleave et al 1991 Cancer Res. 51, 3753-3761; Sato et al 1997 Cancer Res. 57, 1584-1589; and Sadar et al 2002 Mol. Cancer Ther. 1(8), 629-637). R1881 (a synthetic androgen) is employed since it is stable and avoids problems associated with the labile physiological ligand dihydrotestosterone (DHT).
One well characterized ARE-driven reporter gene construct that has been used extensively is the PSA (6.1 kb) enhance/promoter which contains several AREs and is highly inducible by androgens as well as by FSK (Ueda et al 2002 A J. Biol. Chem. 277, 7076-7085).
LNCaP (2.4×10^4 cell/well) cells were seeded on 24-well plates overnight before transfection with PSA(6.1 kb)-luciferase plasmid (0.25 ug/well) in serum-free, red phenol-free media. The next day, cells were pre-treated with compounds of the disclosure for 1 hour before the addition of synthetic androgen, R1881 (1 nM) to trans activate the androgen receptor. After 48 h of incubation with R1881, the cells were harvested, and relative luciferase activity was determined as a read-out for androgen receptor transcriptional activity. Test compounds were added to the cells at various concentrations and activity for each treatment was normalized to the predicted maximal activity induction (in the absence of test compounds, vehicle only). Transfection experiments were performed using triplicate wells.
Further experiments, as outlined in Example 22, were conducted with LNCaP cells transfected with PSA-luciferase plasmid to evaluate the dose response of particular compounds of the disclosure.

LNCaP xenografts = assay: LNCaP xenograft tumor volume in castrated NOD-SCID mice; type: in vivo
Method: Male NOD-SCID mice bearing subcutaneous tumors were castrated when tumor volume was approximately 100 mm3.
Tumors were measured using caliphers and the volume calculated by application of the formula (L×W×H)*0.5236.
Animals bearing LNCaP xenografts were dosed daily by oral gavage with 55.23 mg/kg body weight of Compound 7c or CMC/10% DMSO/Tween-20 vehicle control.
Tumors were measured using caliphers and the volume calculated by application of the formula (L×W×H)*0.5236Male

LNCaP cells = assay: AlamarBlue proliferation assay, androgen-dependent proliferation of LNCaP cells in response to R1881; type: cell-based, human; settings: 0.1 nM R1881, 3 days, FIG. 10
Method: Protocol: Proliferation assays using AlamarBlue, wherein the % androgen-dependent proliferation represents proliferation of LNCaP cells in response to R1881 compared to basal levels.
PC3 and LNCaP cells were plated in 96-well plates in respective media plus 0.5% FBS. […] Cell viability was measured using alamarBlue Cell Viability Assay (Invitrogen) following the manufacturer's protocol.

[1] = PSA-luc, mean, read-out: PSA-luc IC50s MEAN
[2] = LNCaP cells transfected with PSA-luciferase plasmid, R1881 1 nM, 48 h, data of FIG. 9, read-out: IC50 (μM + Standard Deviation)

Structure (SMILES)	IC50 (androgen receptor; [1]) [µM]	IC50 (androgen receptor; [2]) [µM]	other results
CC(C)(c1ccc(OC[C@H](O)CCl)cc1)c1ccc(OC[C@H](O)COC(=O)CN)cc1 [(S)-3-(4-(2-(4-((S)-3-chloro-2-hydroxypropoxy)phenyl)propan-2-yl)phenoxy)-2-hydroxypropyl 2-aminoacetate]	12.1		
CC(=O)OC[C@@H](O)COc1ccc(C(C)(C)c2ccc(OC[C@H](O)CCl)cc2)cc1 [Compound 1c]		25.6	
CC(=O)O[C@H](CCl)COc1ccc(C(C)(C)c2ccc(OC[C@H](O)CO)cc2)cc1 [Compound 3c]		11.6	
CC(=O)OC[C@H](COc1ccc(C(C)(C)c2ccc(OC[C@H](O)CCl)cc2)cc1)OC(C)=O [Compound 4c, (S)-3-(4-(2-(4-((S)-3-chloro-2-hydroxypropoxy)phenyl)propan-2-yl)phenoxy)propane-1,2-diyl diacetate]	15.3		
CC(=O)OC[C@H](COc1ccc(C(C)(C)c2ccc(OC[C@@H](CCl)OC(C)=O)cc2)cc1)OC(C)=O [Compound 7c, (S)-3-(4-(2-(4-((S)-2-acetoxy-3-chloropropoxy)phenyl)propan-2-yl)phenoxy)propane-1,2-diyl diacetate]		8.81	tumor volume (LNCaP xenografts; Example 25, daily oral gavage, 10% DMSO/corn oil vehicle control, FIG. 11): effective at reducing tumor volume; tumor volume reduction compared with compound A (LNCaP xenografts; Example 25, daily oral gavage, FIG. 11): more effective than its active compound; tumor volume (LNCaP xenografts; Example 26, 55.23 mg/kg body weight daily by oral gavage, CMC/10% DMSO/Tween-20 vehicle control, FIG. 12): effective at reducing tumor volume; potency in proliferation assay relative to active compound (compound A) (LNCaP cells): twice as potent
COC[C@H](O)COc1ccc(C(C)(C)c2ccc(OC[C@H](O)CCl)cc2)cc1 [Compound B, reference compound]		9.8	
CC(=O)OC[C@H](COc1ccc(C(C)(C)c2ccc(OC[C@H]3CO3)cc2)cc1)OC(C)=O [Example 11, (S)-3-(4-(2-(4-((R)-oxiran-2-ylmethoxy)phenyl)propan-2-yl)phenoxy)propane-1,2-diyl diacetate]	26		
CC(C)(c1ccc(OC[C@@H](CCl)OC(=O)CCC(=O)O)cc1)c1ccc(OC[C@@H](COC(=O)CCC(=O)O)OC(=O)CCC(=O)O)cc1 [Example 13, (S)-3-(4-(2-(4-((S)-3-chloro-2-hydroxypropoxy)phenyl)propan-2-yl)phenoxy)propane-1,2-diol trisuccinate]	60.2		
COC[C@@H](COc1ccc(C(C)(C)c2ccc(OC[C@@H](CCl)OC(C)=O)cc2)cc1)OC(C)=O [Example 21, (S)-1-(4-(2-(4-((S)-2-acetoxy-3-chloropropoxy)phenyl)propan-2-yl)phenoxy)-3-methoxypropan-2-yl acetate]		8.07	
